Measurements published in ChEMBL document CHEMBL6153108, “Otitiglycomycins A and B: Glycolipids from the Strain Nocardia otitidiscavarum 20S-13 with Antiviral Activity against Zika Virus” (J Nat Prod, 2025).
Calls of active or inactive are those of the source. The rule behind the calls is not given here.

Assays:
[1] = system: Vero C1008; assay: Cytotoxicity against african green monkey Vero E6 cells assessed as cell viability at 100 uM incubated for 48 hrs by MTS assay; type: toxicity, cell-based; conditions: chlorocebus sabaeus, vero c1008, 48 h
[2] = Cytotoxicity against african green monkey Vero E6 cells assessed as cell viability incubated for 48 hrs by MTS assay; type: toxicity, cell-based, Vero C1008; conditions: African green monkey (Chlorocebus sabaeus)
[3] = system: Zika virus; assay: Antiviral activity against ZIKV MR766NIID expressing GFP infected in african green monkey Vero E6 assessed as reduction in viral replication incubated for 24 hrs by flow cytometry assay; type: functional, organism-based; conditions: for Activity: dose 0.3-100 µM
[4] = system: Zika virus; assay: Antiviral activity against ZIKV MR766NIID expressing GFP infected in african green monkey Vero E6 assessed as reduction in viral replication at 50 uM incubated for 24 hrs by flow cytometry assay relative to control; type: functional; design: scale not given: the % may be the effect or the level left
[5] = Selectivity index, ratio of IC50 for cytotoxicity against african green monkey Vero E6 cells to IC50 for ZIKV MR766NIID expressing GFP infected in african green monkey; type: toxicity, cell-based; conditions: read-out: Ratio IC50
[6] = system: Zika virus; assay: Antiviral activity against ZIKV MR766NIID expressing GFP infected in african green monkey Vero E6 assessed as reduction in viral replication preincubated for 2 hrs and measured after 22 hrs by flow cytometry assay; type: functional, organism-based; conditions: time 24.0 hrs
[7] = system: Zika virus; assay: Antiviral activity against ZIKV MR766NIID expressing GFP infected in african green monkey Vero E6 assessed as reduction in viral replication measured after 24 hrs by flow cytometry assay; type: functional; design: scale not given: the % may be the effect or the level left
[8] = system: Zika virus; assay: Antiviral activity against ZIKV MR766NIID expressing GFP infected in african green monkey Vero E6 assessed as neutralization of viral infection at 25 uM compound preincubated with virus for 2 hrs followed by 0.7 uM compound addition and measured after 2 hrs by flow cytometry analysis relative to control; type: functional, organism-based; conditions: time 4.0 hrs
[9] = system: Zika virus; assay: Antiviral activity against ZIKV MR766NIID expressing GFP infected in african green monkey Vero E6 assessed as reduction in virus attachment to cell surface at 25 uM incubated for 1 hr by RT-qPCR analysis relative to control; type: functional; design: scale not given: the % may be the effect or the level left

| Compound | Activity [1] | IC50 at 48 h [2] | IC50 ([3]; Vero C1008, 24 h) | Activity [3] | Activity [4] | selectivity ratio [5] | Activity [6] | Activity [7] | Activity [8] | Activity [9] |
| --- | --- | --- | --- | --- | --- | --- | --- | --- | --- | --- |
| CCCCCCCCCCCCCCCCCC(=O)O[C@H]1[C@@H](O[C@H](CO)C(=O)O)O[C@H](CO)[C@@H](O)[C@@H]1OC(=O)C(C)C | Non-toxic | > 100 µM | 10.5 µM | Dose-dependent-effect | 100% | > 10 | inactive | 100% | Active | 90% |
| CCCCCCCCCCCCCCC(=O)O[C@H]1[C@@H](O[C@H](CO)C(=O)O)O[C@H](CO)[C@@H](O)[C@@H]1O | Non-toxic | > 100 µM | – | inactive | – | – | – | – | – | – |
